Tests used:
tyrosinase = biological target: tyrosinase; design: method as in PMID 33782442; conditions: read-out: EC50 of activation effect on tyrosinase; cited from earlier work
[1] = biological target: Tyrosinase (from mushroom, EC1.14.18.1); assay: Mushroom tyrosinase activity assay (L-DOPA substrate, absorbance at 475 nm); format: biochemical; conditions: effective concentration to promote relative enzyme activity at 150%, 37 °C, 30 min, read-out: EC50 of activation effect on tyrosinase
Procedure: The tyrosinase activity was determined by referring to the previously reported method with appropriate modifications. […] The reaction was carried out at 37 °C for 30 min and the absorbance values were recorded at 475 nm with a Spectra Max M5 microplate reader (Molecular Device, Sunnyvale, CA, USA). Blank group (system containing PBS, enzyme and L-DOPA solution), blank control group (system containing PBS and L-DOPA solution), and sample control group (system containing PBS, sample solution and L-DOPA solution) were also set up. The relative enzyme activity of each sample group was calculated using the following formula: Relative enzyme activity (%) = [(B1 − B2)/(A1 − A2)] × 100 where A1 = absorbance of the blank group, A2 = absorbance of the blank control group, B1 = absorbance of the sample group and B2 = absorbance of the sample control group. The effective concentration of each sample to promote relative enzyme activity at 150% was calculated as EC50 value.

mushroom tyrosinase = assay: Enzyme kinetic analysis (Lineweaver-Burk) of mushroom tyrosinase; format: biochemical; conditions: sample used as substrate
Procedure: The enzyme kinetics was determined by referring to the previously reported method with appropriate modifications. […] As described in Section 2.5, a blank group, a blank control group and a sample control group were set up. The initial rate of dopachrome formation in the reaction mixture was determined as an increase in absorbance at a wavelength of 475 nm per minute by using a microplate reader. The Michaelis constant (Km) and maximal velocity (Vmax) of tyrosinase activity were determined by Lineweaver-Burk plots using different concentrations of (+)-catechin and (−)-epicatechin as substrates.

| EC50 [1] [µM] | Km (mushroom tyrosinase; DOPA 1 mM) [µM] | Vm of tyrosinase activity (mushroom tyrosinase; DOPA 1 mM) | Km (mushroom tyrosinase; DOPA 1.5 mM) [µM] | Vm of tyrosinase activity (mushroom tyrosinase; DOPA 1.5 mM) | Km (mushroom tyrosinase; DOPA 2 mM) [µM] | Vm of tyrosinase activity (mushroom tyrosinase; DOPA 2 mM) | Compound | EC50 (tyrosinase) [µM] |
| --- | --- | --- | --- | --- | --- | --- | --- | --- |
|  |  |  |  |  |  |  | O=C(CCc1ccc(O)c(O)c1)c1c(O)cc(O)c([C@@H]2O[C@H](CO)[C@@H](O)[C@H](O)[C@H]2O)c1O [Aspalathin] | 265 ± 4.56 |
| 36.7 ± 0.43 | 11.2 | 85.47 | 11.7 | 80.00 | 18 | 71.94 | Oc1cc(O)c2c(c1)O[C@H](c1ccc(O)c(O)c1)[C@H](O)C2 [(−)-Epicatechin] |  |
| 32.5 ± 1.7 | 62 | 200.00 | 74.3 | 175.44 | 87 | 158.73 | Oc1cc(O)c2c(c1)OC(c1ccc(O)c(O)c1)C(O)C2 (single isomer, unassigned; (+)) [(+)-Catechin] |  |

From PMC9777575, “Exploring the Promotive Effects and Mechanisms of Different Polyphenolic Extracts from Prinsepia utilis Royle Seed Shell on Tyrosinase” (Foods, 2022)
